Experimental findings from US9708323B2, “Tricyclic compounds as alpha-7 nicotinic acetylcholine receptor ligands” (BRISTOL-MYERS SQUIBB COMPANY, priority 2014, dated 2017) are described below.

The target of the assay is T1, α-7 nicotinic ACh receptor ion channel expressed in HEK 293 cells (Rattus norvegicus, UniProt Q05941).
T1 construct: expressed in transfected cells
Put plainly: Ca2+-sensitive, fluorescence-based assay for α-7 nicotinic acetylcholine receptor channel function in mammalian cells (FLIPR). Type of assay: cell-based. To be noted: read-out: FLIPR α7 (EC50). How it is done:
II) A Ca^2+-Sensitive, Fluorescence-Based Assay α-7 for Nicotinic Acetylcholine Receptor Channel Function in Mammalian Cells (“FLIPR”). Summary:
Lead compounds are evaluated for agonist activity at α-7, α3β4, α4αβ2, and α1β1δ1ε sub-types of nicotinic ACh receptor ion channels expressed in mammalian HEK 293 cells. Agonist potency and efficacy values are determined from kinetic fluorescence Ca^2+ influx measurements made using a 384 well FLIPR (Fluorescence Image Plate Reader). The utility of fluorescent indicators for measuring changes in intracellular divalent cation concentrations, particularly Ca^2+, for drug discovery endeavors is well documented (Rudiger, R., et al., Nature Reviews, 2003, 4:579-586; Gonzalez J. E., et al., Receptors and Channels, 2002, 8:283-295). In this assay, channel expressing HEK cell lines seeded in 384 well assay plates are loaded with a membrane permeant fluorescent Ca^2+ indicator dye, whose 510 nm green emission signal increases in response to elevation of intracellular Ca^2+ concentration. The basal fluorescence from the cells is monitored in real time, followed by the acute addition of test compounds. If the compound is an agonist at any of the non-selective cation channels, the latter open and allow the movement of extracellular Ca^2+ ions into the cell cytoplasm, where they bind to the Ca^2+ indicator dye, and produce an increase in fluorescence output signal, which is detected by a cooled CCD imaging camera.
Reagents: The acetomethoxy (AM) ester of the Ca^2+ indicator dye Fluo-4 was obtained from InVitrogen, (Carlsbad, Calif.). Acetylcholine and all buffer constituents were purchased from Sigma Chemical Company, St. Louis, Mo. G418 and Minimal Essential Medium were purchased from InVitrogen Life Technologies, Carlsbad, Calif. Fetal bovine serum was purchased from (InVitrogen, Carlsbad, Calif.).
HEK-293 cells were grown in Minimal Essential Medium containing 10% (v/v) fetal bovine serum at 37° C. in a 5% CO2 incubator. HEK-293 cells stably expressing the ion channels were grown in the same medium with the addition of 500 μg/ml G418.
HEK-293 cells expressing the ion channels of interest were plated in 384 well, black-walled, clear-bottomed, poly-D-lysine coated plates at a density of ˜20,000 cells/well in 20 μl of Minimal Essential Medium containing 10% (v/v) fetal bovine serum and incubated for 2 days at 29° C. in a 5% CO2 incubator. Prior to assay, cells were loaded with the Fluo-4 AM ester. Cell loading was accomplished by removing the culture medium and replacing it with 30 μl/well of the AM ester of the dye (5 μM) mixed with Hanks Balanced Salt Solution (#14175-095) containing 20 mM HEPES, 2.5 mM probenecid, 0.5 mM CaCl2, 1 mM MgCl2 and 10 μM atropine. Dye loading was allowed to proceed for 90 minutes at room temperature at which time the dye loading solution was removed and replaced with 40 μl/well of Hanks buffer. Cells loaded with dye were loaded onto a FLIPR384 (Molecular Devices, Sunnyvale, Calif.). Fluo-4 dye was excited using the 488 nm line of an argon laser. Emission was filtered using a 540+/−30 nm bandpass filter. For evaluation of the effects of test compounds using the Ca^2+ flux assay, compounds to be tested were provided in assay ready plates. For nicotinic receptor ion channel expressing cells, the assay was initiated by the addition of 20 μl/well of Hanks buffer containing test compounds. For all assays, data were collected at 1 Hz for 10 seconds (baseline), at which time the compound containing stimulus buffers are added, and further measurements collected at 0.33 Hz for 3 min.
The statistical robustness of the nicotinic receptor Ca^2+ flux assays is determined from blanks and totals wells. The totals wells define maximal channel activation for each compound test plate (Maximum efficacious dose of acetylcholine), and the blanks wells which contain matched DMSO only, define zero channel activation. […]

Structures are written as SMILES. pEC50: −log10 of the molar value. Like-named read-outs stand apart in the source and are kept apart here.

T1 sequence (Q05941 23-502): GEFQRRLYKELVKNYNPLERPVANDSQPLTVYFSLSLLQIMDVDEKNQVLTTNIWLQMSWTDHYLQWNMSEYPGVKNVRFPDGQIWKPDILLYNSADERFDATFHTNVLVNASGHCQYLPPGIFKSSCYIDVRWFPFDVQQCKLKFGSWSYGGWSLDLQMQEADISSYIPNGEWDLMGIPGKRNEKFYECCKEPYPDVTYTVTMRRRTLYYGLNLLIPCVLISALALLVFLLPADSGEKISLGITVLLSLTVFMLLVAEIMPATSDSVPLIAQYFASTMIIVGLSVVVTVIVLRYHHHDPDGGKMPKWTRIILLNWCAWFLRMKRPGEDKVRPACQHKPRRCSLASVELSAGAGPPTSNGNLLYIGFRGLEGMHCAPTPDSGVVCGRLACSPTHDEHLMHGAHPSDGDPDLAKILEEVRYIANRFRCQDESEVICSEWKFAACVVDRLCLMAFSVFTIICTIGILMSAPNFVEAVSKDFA

A word on the pEC50: it is the negative decadic logarithm of the EC50, by convention in mol/L. Consider `O=C(c1cc2cccc(Cl)c2s1)N1CC2CN3CCC2C1C3` (stereo not shown) [Example 1, (7-chlorobenzo[b]thiophen-2-yl)(hexahydro-3,6-methanopyrrolo[2,3-c]pyridin-1(2H)-yl)methanone], for which, under “Table 1, agonist Ca2+ flux”, the pEC50 was 5.77.
For the compound `O=C(c1n[nH]c2ccccc12)N1CC2CN3CCC2C1C3` (stereo not shown) [Example 2, (hexahydro-3,6-methanopyrrolo[2,3-c]pyridin-1(2H)-yl)(1H-indazol-3-yl)methanone], for the setting “Table 1, agonist Ca2+ flux”, the pEC50 is 6.60.
Same read-out and setting: next, `O=C(c1ccccc1)N1CC2CN3CCC2C1C3` (stereo not shown) [Example 3, (hexahydro-3,6-methanopyrrolo[2,3-c]pyridin-1(2H)-yl)(phenyl)methanone]: < 4.00; `O=C(c1ccc(Br)o1)N1CC2CN3CCC2C1C3` (stereo not shown) [Example 7]: < 4.00.
Same read-out and setting: for `O=C(c1sccc1Cl)N1CC2CN3CCC2C1C3` (stereo not shown) [Example 26] the value was < 4.00; for `O=C(c1cccc(Cl)n1)N1CC2CN3CCC2C1C3` (stereo not shown) [Example 35], < 4.00; for `O=C(c1cc(Cl)ccn1)N1CC2CN3CCC2C1C3` (stereo not shown) [Example 37], < 4.00.
With `O=C(c1cc(Br)c(Br)s1)N1CC2CN3CCC2C1C3` (stereo not shown) [Example 51], the pEC50 (Table 1, agonist Ca2+ flux) was < 4.00.
Same read-out and setting: for `O=C(c1sc2cc(F)ccc2c1Cl)N1CC2CN3CCC2C1C3` (stereo not shown) [Example 52] the value was < 4.00.
Same read-out and setting: next, `Cn1nc2ccccc2c1C(=O)N1CC2CN3CCC2C1C3` (stereo not shown) [Example 54]: < 4.00.
Take `O=C(c1c[nH]c2ncccc12)N1CC2CN3CCC2C1C3` (stereo not shown) [Example 55]: the pEC50 (Table 1, agonist Ca2+ flux) is < 4.00.
Regarding `O=C(c1cc(Br)no1)N1CC2CN3CCC2C1C3` (stereo not shown) [Example 56], the pEC50 (Table 1, agonist Ca2+ flux) is < 4.00.
Same read-out and setting: next, `O=C(c1cc(Br)c(Br)o1)N1CC2CN3CCC2C1C3` (stereo not shown) [Example 57]: < 4.00; `CC(C)c1cc(C(=O)N2CC3CN4CCC3C2C4)on1` (stereo not shown) [Example 58]: < 4.00; `O=C(c1cc(Br)cs1)N1CC2CN3CCC2C1C3` (stereo not shown) [Example 59]: < 4.00.
Same read-out and setting: next, `COc1cc(Br)cc2cc(C(=O)N3CC4CN5CCC4C3C5)oc12` (stereo not shown) [Example 60]: < 4.00.
For the compound `O=C(c1cc(-c2ccccc2)no1)N1CC2CN3CCC2C1C3` (stereo not shown) [Example 62], the pEC50 (Table 1, agonist Ca2+ flux) was < 4.00.
The same measure, in the same setting: for `Cc1cc(C(=O)N2CC3CN4CCC3C2C4)on1` (stereo not shown) [Example 64] the value was < 4.00.
Turning to `Cc1c(Br)csc1C(=O)N1CC2CN3CCC2C1C3` (stereo not shown) [Example 65], under “Table 1, agonist Ca2+ flux”, the pEC50 was < 4.00.
`O=C(c1cc(-c2ccccc2)cs1)N1CC2CN3CCC2C1C3` (stereo not shown) [Example 66]: for the setting “Table 1, agonist Ca2+ flux”, the pEC50 was < 4.00.
Consider `O=C(c1sc2ccccc2c1Cl)N1CC2CN3CCC2C1C3` (stereo not shown) [Example 67], for which, where the note is “Table 1, agonist Ca2+ flux”, the pEC50 is < 4.00.
As for `Cc1ccc2c(Cl)c(C(=O)N3CC4CN5CCC4C3C5)sc2c1` (stereo not shown) [Example 68], for the setting “Table 1, agonist Ca2+ flux”, the pEC50 is < 4.00.
On the same count and under the same terms, for `O=C(c1cc(-c2ccc(Br)cc2)cs1)N1CC2CN3CCC2C1C3` (stereo not shown) [Example 69] the value was < 4.00; for `Cc1cc(C(=O)N2CC3CN4CCC3C2C4)oc1C` (stereo not shown) [Example 70], < 4.00.
Still for that read-out and setting: for `O=C(c1cc2ccc(Cl)cc2s1)N1CC2CN3CCC2C1C3` (stereo not shown) [Example 71] the value was < 4.00.
Regarding `O=C(c1cc2c(C(F)(F)F)cccc2s1)N1CC2CN3CCC2C1C3` (stereo not shown) [Example 72], under “Table 1, agonist Ca2+ flux”, the pEC50 was < 4.00.
Take `O=C(c1cc2nccnc2s1)N1CC2CN3CCC2C1C3` (stereo not shown) [Example 75]: the pEC50 (Table 1, agonist Ca2+ flux) is < 4.00.
Consider `O=C(c1snc(Cl)c1Cl)N1CC2CN3CCC2C1C3` (stereo not shown) [Example 76], for which, under “Table 1, agonist Ca2+ flux”, the pEC50 is < 4.00.
Regarding `O=C(c1ccns1)N1CC2CN3CCC2C1C3` (stereo not shown) [Example 78], the negative-log EC50 (pEC50) (Table 1, agonist Ca2+ flux) was < 4.00.
On the same count and under the same terms, next, `O=C(c1sc2cccc(Cl)c2c1Cl)N1CC2CN3CCC2C1C3` (stereo not shown) [Example 79]: < 4.00; `O=C(c1c[nH]c2ncc(Br)cc12)N1CC2CN3CCC2C1C3` (stereo not shown) [Example 80]: 4.42; `O=C(c1noc2ccccc12)N1CC2CN3CCC2C1C3` (stereo not shown) [Example 81]: 5.10.
The same measure, in the same setting: for `O=C(c1onc2ccccc12)N1CC2CN3CCC2C1C3` (stereo not shown) [Example 82] the value was < 4.00; for `CSc1sc(C(=O)N2CC3CN4CCC3C2C4)c2c1C=CCC2` (stereo not shown) [Example 83], < 4.00; for `O=C(c1cc(-c2ccc(Cl)cc2)cs1)N1CC2CN3CCC2C1C3` (stereo not shown) [Example 84], < 4.00.
`O=C(c1sc2cccc(F)c2c1Cl)N1CC2CN3CCC2C1C3` (stereo not shown) [Example 85]: the pEC50 (Table 1, agonist Ca2+ flux) was < 4.00.
In the case of `Cc1c(C(=O)N2CC3CN4CCC3C2C4)sc2ccc(Cl)cc12` (stereo not shown) [Example 86], the pEC50 (Table 1, agonist Ca2+ flux) is < 4.00.
For the compound `O=C(c1n[nH]c2ccccc12)N1C[C@@H]2C[N@@]3CC[C@@H]2[C@@H]1C3` [Example 87, ((3S,3aS,6R,7aR)-hexahydro-3,6-methanopyrrolo[2,3-c]pyridin-1(2H)-yl)(1H-indazol-3-yl)methanone], the pEC50 (Table 3, agonist Ca2+ flux) was 6.43.
With `O=C(c1n[nH]c2ccccc12)N1C[C@H]2C[N@]3CC[C@H]2[C@H]1C3` [Example 88, ((3R,3aR,6S,7aS)-hexahydro-3,6-methanopyrrolo[2,3-c]pyridin-1(2H)-yl)(1H-indazol-3-yl)methanone], the pEC50 (Table 2, agonist Ca2+ flux) is 6.41.
With `O=C(c1cc2ccccc2s1)N1C[C@H]2C[N@]3CC[C@H]2[C@H]1C3` [Example 89, benzo[b]thiophen-2-yl((3R,3aR,6S,7aS)-hexahydro-3,6-methanopyrrolo[2,3-c]pyridin-1(2H)-yl)methanone], the pEC50 (Table 2, agonist Ca2+ flux) is 4.74.
In the case of `Cn1nc(C(=O)N2C[C@H]3C[N@]4CC[C@H]3[C@H]2C4)c2ccccc21` [Example 90, ((3R,3aR,6S,7aS)-hexahydro-3,6-methanopyrrolo[2,3-c]pyridin-1(2H)-yl) (1-methyl-1H-indazol-3-yl)methanone], the pEC50 (Table 2, agonist Ca2+ flux) is < 4.00.
Consider `Cn1cc(C(=O)N2C[C@H]3C[N@]4CC[C@H]3[C@H]2C4)c2ccccc21` [Example 91, ((3R,3aR,6S,7aS)-hexahydro-3,6-methanopyrrolo[2,3-c]pyridin-1(2H)-yl)(1-methyl-1H-indol-3-yl)methanone], for which the pEC50 (Table 2, agonist Ca2+ flux) is < 4.00.
For `O=C(c1n[nH]c2ccc(Cl)cc12)N1C[C@H]2C[N@]3CC[C@H]2[C@H]1C3` [Example 92, ((3R,3aR,6S,7aS)-hexahydro-3,6-methanopyrrolo[2,3-c]pyridin-1(2H)-yl)(5-chloro-1H-indazol-3-yl)methanone], under “Table 2, agonist Ca2+ flux”, the pEC50 was 6.15.
Same read-out and setting: for `COc1ccc2c(C(=O)N3C[C@H]4C[N@]5CC[C@H]4[C@H]3C5)n[nH]c2c1` [Example 93, ((3R,3aR,6S,7aS)-hexahydro-3,6-methanopyrrolo[2,3-c]pyridin-1(2H)-yl)(6-methoxy-1H-indazol-3-yl)methanone] the value was 5.66.
The same measure, in the same setting: next, `O=C(c1cc2c(Cl)cccc2s1)N1C[C@H]2C[N@]3CC[C@H]2[C@H]1C3` [Example 94, 4-chlorobenzo[b]thiophen-2-yl((3R,3aR,6S,7aS)-hexahydro-3,6-methanopyrrolo[2,3-c]pyridin-1(2H)-yl)methanone]: < 4.00; `COc1cccc2[nH]nc(C(=O)N3C[C@H]4C[N@]5CC[C@H]4[C@H]3C5)c12` [Example 95, ((3R,3aR,6S,7aS)-hexahydro-3,6-methanopyrrolo[2,3-c]pyridin-1(2H)-yl)(4-methoxy-1H-indazol-3-yl)methanone]: < 4.00.
